From paper PMC9788040, “Molecular Diversity of Linear Peptides Revealed by Transcriptomic Analysis of the Venom Gland of the Spider Lycosa poonaensis” (Toxins, 2022)
Where no end group is shown, it is not given here.

System: Bacillus subtilis NBRC 3009
Test: Antibacterial activity, liquid growth inhibition assay
Format: cell-based
Settings: B. subtilis NBRC 3009, LB medium, overnight 37 °C, A595; MIC as interval [a]–[b]; at least three experiments in duplicate
Procedure: (§1) Antibacterial activity was measured using the Gram-negative bacteria Escherichia coli NBRC 3972 and the Gram-positive bacteria Staphylococcus aureus NBRC 13276 and Bacillus subtilis NBRC 3009 (NITE Biological Resource Center, Chiba, Japan), using a liquid growth inhibition assay. Each bacteria strain was grown in a liquid LB medium (1% tryptone, 0.5% yeast extract, and 1% NaCl). Aliquots of each sample (10 µL) were incubated with 90 µL of a suspension of a mid-logarithmic phase culture of bacteria in a 96-well plate at a starting absorbance of A595 = 0.001 in the LB medium; the incubation occurred overnight at 37 °C with continuous shaking. Growth inhibition was monitored by measuring the absorbance at 595 nm using a Benchmark microplate reader (Bio-Rad, Hercules, CA, USA). Experiments were repeated at least three times, each time in duplicate. Minimal inhibitory concentrations (MICs) are expressed as the interval of concentrations [a]–[b], where [a] is the highest concentration at which bacteria still grow and [b] is the lowest concentration causing growth inhibition.

| Substance | Antibacterial Activity MIC, B. subtilis [µM] |
| --- | --- |
| AGLGKIGAFIKKAYAIYKAKAA-NH2 [M-lycotoxin-Lp5a] | 1.25 to 2.5 |
| AGLGKIGALIKKAYAIYKAKAA-NH2 [M-lycotoxin-Lp5b] | 1.25 to 2.5 |
| IWLTALKFIGKNLGKHFAKQQLSKL-NH2 [M-lycotoxin-Lp3a] | 0.8 to 1.6 |
| MVWLLPLKFLASHVAMEQLSKLGSKIATKL-NH2 [M-lycotoxin-Lp1a] | 12.5 to 25 |
| SKWKAFLAKMKEIASEAL-NH2 [M-lycotoxin-Lp6] | 5 to 12.5 |
| VIWLPALKFLASHIAMEQLSKL-NH2 [M-lycotoxin-Lp1b] | 6.2 to 12.5 |

System: Escherichia coli NBRC 3972
Test: as above
Format: cell-based
Settings: E. coli NBRC 3972, LB medium, overnight 37 °C, A595; MIC as interval [a]–[b]; at least three experiments in duplicate
Procedure: as §1

| Substance | Antibacterial Activity MIC, E. coli [µM] |
| --- | --- |
| AGLGKIGAFIKKAYAIYKAKAA-NH2 [M-lycotoxin-Lp5a] | 1.25 to 2.5 |
| AGLGKIGALIKKAYAIYKAKAA-NH2 [M-lycotoxin-Lp5b] | 1.25 to 2.5 |
| IWLTALKFIGKNLGKHFAKQQLSKL-NH2 [M-lycotoxin-Lp3a] | 0.8 to 1.6 |
| MVWLLPLKFLASHVAMEQLSKLGSKIATKL-NH2 [M-lycotoxin-Lp1a] | 6.2 to 12.5 |
| SKWKAFLAKMKEIASEAL-NH2 [M-lycotoxin-Lp6] | 5 to 12.5 |
| VIWLPALKFLASHIAMEQLSKL-NH2 [M-lycotoxin-Lp1b] | 50 to 100 |

System: Staphylococcus aureus NBRC 13276
Test: as above
Format: cell-based
Settings: S. aureus NBRC 13276, LB medium, overnight 37 °C, A595; MIC as interval [a]–[b]; at least three experiments in duplicate
Procedure: as §1

| Substance | Antibacterial Activity MIC, S. aureus [µM] |
| --- | --- |
| AGLGKIGAFIKKAYAIYKAKAA-NH2 [M-lycotoxin-Lp5a] | 50 to 100 |
| AGLGKIGALIKKAYAIYKAKAA-NH2 [M-lycotoxin-Lp5b] | 50 to 100 |
| IWLTALKFIGKNLGKHFAKQQLSKL-NH2 [M-lycotoxin-Lp3a] | 0.4 to 0.8 |
| MVWLLPLKFLASHVAMEQLSKLGSKIATKL-NH2 [M-lycotoxin-Lp1a] | 12.5 to 25 |
| SKWKAFLAKMKEIASEAL-NH2 [M-lycotoxin-Lp6] | >100 |
| VIWLPALKFLASHIAMEQLSKL-NH2 [M-lycotoxin-Lp1b] | 3.1 to 6.2 |

System: crickets (Acheta domesticus)
Test: Insect toxicity (paralysis after injection)
Format: in vivo
Settings: injection into abdominal region, paralysis counted 30 min after injection, 10 insects per measurement, parentheses = 95% confidence intervals
Procedure: Insect toxicity was tested on crickets (Acheta domesticus, 50 ± 5 mg body weight) by injecting 1–2 µL of each sample dissolved in distilled water into their abdominal region. Distilled water was injected as a control. For each measurement, 10 insects were used, and the number of paralyzed insects was counted 30 min after injection. The doses required to induce paralysis in half of the test animals (PD50) were determined using the statistical software PRISM (GraphPad Software, La Jolla, CA, USA).

| Substance | Insect Toxicity PD50 |
| --- | --- |
| AGLGKIGAFIKKAYAIYKAKAA-NH2 [M-lycotoxin-Lp5a] | 50 (18.3–138) µg/g Weight |
| AGLGKIGALIKKAYAIYKAKAA-NH2 [M-lycotoxin-Lp5b] | 44 (12.2–160) µg/g Weight |
| KIKWFKAMKSIAKYVAKKQLKKHLGGEN [M-lycotoxin-Lp4] | 10 (5.8–17.1) µg/g Weight |

System: sheep red blood cells (sRBCs)
Test: Hemolytic activity
Format: cell-based
Settings: sheep RBC 4% (v/v) in PBS pH 7.2, 1 h 37 °C, absorbance 450 nm; 3 experiments in triplicate; read-out: Hemolysis EC50
Procedure: Fresh sheep red blood cells (sRBCs) were washed three times with PBS (35 mM phosphate buffer and 150 mM NaCl, pH 7.2) through centrifugation at 2000× g for 5 min and resuspended in PBS. Specifically, aliquots of each sample in PBS (50 μL) were added to 50 μL of sRBC suspension [4% (v/v) in the final] in a microtube and incubated for 1 h at 37 °C; then, the samples were centrifuged at 2000× g for 5 min. The supernatant was transferred to a 96-well plate to monitor hemoglobin release, which was done by measuring the absorbance of the supernatant at 450 nm using a Benchmark microplate reader. PBS and 0.1% Triton X-100 were used as the negative and positive controls, respectively. The experiments were repeated 3 times, each time in triplicate. In the equation to calculate the hemolysis rate, AP refers to peptide sample absorbance, AT refers to 0.1% Triton X-100 positive control absorbance, and A0 refers to PBS sample negative control absorbance. Hemolysis rate (%)=Ap−A0/AT−A0×100

| Substance | EC50 [µM] |
| --- | --- |
| AGLGKIGAFIKKAYAIYKAKAA-NH2 [M-lycotoxin-Lp5a] | > 100 |
| AGLGKIGALIKKAYAIYKAKAA-NH2 [M-lycotoxin-Lp5b] | > 100 |
| IWLTALKFIGKNLGKHFAKQQLSKL-NH2 [M-lycotoxin-Lp3a] | > 100 |
| MVWLLPLKFLASHVAMEQLSKLGSKIATKL-NH2 [M-lycotoxin-Lp1a] | > 100 |
| SKWKAFLAKMKEIASEAL-NH2 [M-lycotoxin-Lp6] | > 100 |
| VIWLPALKFLASHIAMEQLSKL-NH2 [M-lycotoxin-Lp1b] | > 100 |

System: not listed separately
Test: Secondary structure estimation by CD spectroscopy (DichroWeb)
Format: physicochemical
Settings: solvent I: 0.2 M phosphate buffer pH 7.0, 10 µM, 25 °C, DichroWeb CDSSTR, reference dataset 4
Procedure: CD spectra were recorded on a J-820 spectropolarimeter (Jasco, Tokyo, Japan). The spectra were measured between 190–260 nm (in 0.2-nm steps) at 25 °C with a 1-mm-pathlength cell. Samples were dissolved in a 0.2 M phosphate buffer (pH 7.0) or 50% TFE in a 0.2 M phosphate buffer (pH 7.0) at a concentration of 10 µM. Five scans were averaged for each sample. The percentages of secondary structures were estimated from the spectra using the DichroWeb server. The helical wheel projection was performed using the online software HeliQuest (https://heliquest.ipmc.cnrs.fr, accessed on 14 July 2022).

| Substance | Percentage of Secondary Structure, Turns [%] | Percentage of Secondary Structure, Unordered [%] | Percentage of Secondary Structure, α-Helix [%] | Percentage of Secondary Structure, β-Sheet [%] |
| --- | --- | --- | --- | --- |
| AGLGKIGAFIKKAYAIYKAKAA-NH2 [M-lycotoxin-Lp5a] | 28 | 33 | 15 | 23 |
| AGLGKIGALIKKAYAIYKAKAA-NH2 [M-lycotoxin-Lp5b] | 25 | 34 | 7 | 33 |
| KIKWFKAMKSIAKYVAKKQLKKHLGGEN [M-lycotoxin-Lp4] | 26 | 33 | 8 | 33 |

Same assay, conditions: solvent II: 50% TFE in 0.2 M phosphate buffer pH 7.0, 10 µM, 25 °C, DichroWeb CDSSTR, reference dataset 4

| Substance | Percentage of Secondary Structure, Turns [%] | Percentage of Secondary Structure, Unordered [%] | Percentage of Secondary Structure, α-Helix [%] | Percentage of Secondary Structure, β-Sheet [%] |
| --- | --- | --- | --- | --- |
| AGLGKIGAFIKKAYAIYKAKAA-NH2 [M-lycotoxin-Lp5a] | 10 | 18 | 55 | 17 |
| AGLGKIGALIKKAYAIYKAKAA-NH2 [M-lycotoxin-Lp5b] | 11 | 23 | 51 | 14 |
| KIKWFKAMKSIAKYVAKKQLKKHLGGEN [M-lycotoxin-Lp4] | 13 | 23 | 51 | 11 |
